This note sets out measurements from PubChem BioAssay AID330 (DTP/NCI, 2004).

This test has as its system P388 leukemia ip, CD2F1 mice, survival T/C. Put plainly: NCI In Vivo Anticancer Drug Screen. Data for tumor model P388 Leukemia (intraperitoneal) in CD2F1 (CDF1) mice. The note with it: endpoint: median survival time, higher = longer survival. In short, it runs like this:
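Mice carrying the transplanted tumor received test compound or vehicle. Survival was recorded in each group, and the value is the treated-group measurement divided by that of the vehicle-treated control group.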

Where [1] appears, read: dose: 50.0 mg/kg/injection, schedule: Q01DX009 (ip), vehicle: saline with Tween-80.
The mark [2] stands for this setting: dose: 100.0 mg/kg/injection, schedule: Q01DX009 (ip), vehicle: saline with Tween-80.
Where [3] appears, read: dose: 200.0 mg/kg/injection, schedule: Q01DX009 (ip), vehicle: saline with Tween-80.
The mark [4] stands for this setting: dose: 50.0 mg/kg/injection, schedule: Q01DX005 (ip), vehicle: saline with Tween-80.
Where [5] appears, read: dose: 100.0 mg/kg/injection, schedule: Q01DX005 (ip), vehicle: saline with Tween-80.
The mark [6] stands for this setting: dose: 200.0 mg/kg/injection, schedule: Q01DX005 (ip), vehicle: saline with Tween-80.
Setting [7] is: dose: 100.0 mg/kg/injection, schedule: Q01DX001 (ip), vehicle: Klucel (hydroxypropylcellulose) (HPC).
Where [8] appears, read: dose: 200.0 mg/kg/injection, schedule: Q01DX001 (ip), vehicle: Klucel (hydroxypropylcellulose) (HPC).

Several values for one entry are separate records, joined by “and”; a condition that tells them apart may be missing. Identical values can stand only once. Toxic doses and inconclusive results are not listed.

For `CN(C)CCCN1CCC2(CCSCC2)C1`, the T/C (dose: 50.0 mg/kg/injection, schedule: Q01DX005 (ip), vehicle: saline) is 102 % of control; the T/C (dose: 100.0 mg/kg/injection, schedule: Q01DX005 (ip), vehicle: saline) was 99 % of control; the T/C (dose: 200.0 mg/kg/injection, schedule: Q01DX005 (ip), vehicle: saline) is 91 % of control.
On to `O=C1C(N=Nc2ccc([N+](=O)[O-])cc2)Sc2nc3ccccc3n21` (stereo not given), for which the T/C by setting is: (dose: 7.5 mg/kg/injection, schedule: Q01DX005 (ip), vehicle: Klucel (hydroxypropylcellulose) (HPC)) 99 % of control; (dose: 15.0 mg/kg/injection, schedule: Q01DX005 (ip), vehicle: Klucel (hydroxypropylcellulose) (HPC)) 92 % of control; (dose: 30.0 mg/kg/injection, schedule: Q01DX005 (ip), vehicle: Klucel (hydroxypropylcellulose) (HPC)) 90 % of control.
With `CCOC1OCN(CCc2ccccc2)CC1(C)C` (stereo not given), the T/C was 108 % of control under setting [1], 119 % of control under setting [2] and 118 % of control under setting [3].
With `O=C(NC12CC3CC(CC(C3)C1)C2)OCCN1CCN(CCCN2c3ccccc3Sc3ccc(C(F)(F)F)cc32)CC1`, the T/C by setting is: (dose: 25.0 mg/kg/injection, schedule: Q04DX002 (ip), vehicle: saline with Tween-80) 97 % of control; (dose: 50.0 mg/kg/injection, schedule: Q04DX002 (ip), vehicle: saline with Tween-80) 101 % of control; (dose: 100.0 mg/kg/injection, schedule: Q04DX002 (ip), vehicle: saline with Tween-80) 104 % of control and 113 % of control.
As for `CCC(C)C(=O)C(Br)C(Br)c1ccccc1` (stereo not given), the T/C is 101 % of control (dose: 50.0 mg/kg/injection, schedule: Q01DX009 (ip), vehicle: Klucel (hydroxypropylcellulose) (HPC)); 100 % of control (dose: 100.0 mg/kg/injection, schedule: Q01DX009 (ip), vehicle: Klucel (hydroxypropylcellulose) (HPC)); 101 % of control (dose: 200.0 mg/kg/injection, schedule: Q01DX009 (ip), vehicle: Klucel (hydroxypropylcellulose) (HPC)).
Turning to `Cc1ccc2nc(=O)c3cccnc3n2c1`, the T/C is, setting by setting: (dose: 3.75 mg/kg/injection, schedule: Q01DX005 (ip), vehicle: saline) 103 % of control; (dose: 7.5 mg/kg/injection, schedule: Q01DX005 (ip), vehicle: saline) 97 % of control; (dose: 15.0 mg/kg/injection, schedule: Q01DX005 (ip), vehicle: saline) 98 % of control.
In the case of `Cc1ccc(S(=O)(=O)O/N=C2/CCC(C)(C)c3ccccc32)cc1`, the T/C under setting [2] was 90 % of control; the T/C under setting [3] is 100 % of control; the T/C (dose: 400.0 mg/kg/injection, schedule: Q01DX009 (ip), vehicle: saline with Tween-80) was 90 % of control.
`COc1cc2c(cc1OC)C(=O)c1ncccc1C2=O`: the T/C is, setting by setting: (dose: 12.5 mg/kg/injection, schedule: Q01DX009 (ip), vehicle: other) 104 % of control; (dose: 25.0 mg/kg/injection, schedule: Q01DX009 (ip), vehicle: other) 100 % of control; (dose: 50.0 mg/kg/injection, schedule: Q01DX009 (ip), vehicle: other) 99 % of control; (dose: 100.0 mg/kg/injection, schedule: Q01DX009 (ip), vehicle: other) 90 % of control; (dose: 200.0 mg/kg/injection, schedule: Q01DX009 (ip), vehicle: other) 89 % of control.
In the case of `CCOc1ccc(/C=C/S(=O)(=O)/C=C\c2ccccc2)c(OC)c1`, the T/C is, setting by setting: under setting [4], 98 % of control; under setting [5], 92 % of control; under setting [6], 87 % of control.
On to `CCn1c(Cl)c(/C=C(/NC(=O)c2ccccc2)C(=O)O)c2ccccc21`, for which the T/C is, setting by setting: under setting [7], 100 % of control; under setting [8], 94 % of control; (dose: 400.0 mg/kg/injection, schedule: Q01DX001 (ip), vehicle: Klucel (hydroxypropylcellulose) (HPC)) 94 % of control.
Regarding `CC(=O)CC1CC2(CCC1=O)OCCO2` (stereo not given), the T/C is, setting by setting: (dose: 100.0 mg/kg/injection, schedule: Q01DX009 (ip), vehicle: saline sonified) 100 % of control; (dose: 200.0 mg/kg/injection, schedule: Q01DX009 (ip), vehicle: saline sonified) 100 % of control; (dose: 400.0 mg/kg/injection, schedule: Q01DX009 (ip), vehicle: saline sonified) 100 % of control.
With `O=CNCO`, the T/C (dose: 250.0 mg/kg/injection, schedule: Q01DX005 (ip), vehicle: water) is 100 % of control; the T/C (dose: 500.0 mg/kg/injection, schedule: Q01DX005 (ip), vehicle: water) is 101 % of control and 103 % of control; the T/C (dose: 1000.0 mg/kg/injection, schedule: Q01DX005 (ip), vehicle: water) was 108 % of control and 110 % of control; the T/C (dose: 2000.0 mg/kg/injection, schedule: Q01DX005 (ip), vehicle: water) is 114 % of control.
Take `COC(=O)C12CN(C)CC(C(=O)OC)(C1=O)C(c1ccccc1)OC2c1ccccc1` (stereo not given): the T/C is 107 % of control and 98 % of control (dose: 60.0 mg/kg/injection, schedule: Q01DX005 (ip), vehicle: saline with Tween-80); 99 % of control (dose: 120.0 mg/kg/injection, schedule: Q01DX005 (ip), vehicle: saline with Tween-80); 98 % of control and 90 % of control (dose: 240.0 mg/kg/injection, schedule: Q01DX005 (ip), vehicle: saline with Tween-80).
Take `CCC(C)P(=O)(N1CC1)N1CC1` (stereo not given): the T/C was 109 % of control (dose: 6.25 mg/kg/injection, schedule: Q01DX009 (ip), vehicle: saline); 113 % of control (dose: 6.25 mg/kg/injection, schedule: Q04DX003 (ip), vehicle: saline); 154 % of control (dose: 25.0 mg/kg/injection, schedule: Q01DX009 (ip), vehicle: saline); 190 % of control (dose: 25.0 mg/kg/injection, schedule: Q04DX003 (ip), vehicle: saline).
`O=C1Cc2ccccc2N1C(=O)c1ccc(Br)cc1`: the T/C runs as follows: under setting [7], 94 % of control; under setting [8], 90 % of control.
Turning to `CCOc1nc(N)nc(C)c1N=Nc1cccc(Cl)c1`, the T/C is 101 % of control (dose: 60.0 mg/kg/injection, schedule: Q01DX005 (ip), vehicle: Klucel + Tween-80); 107 % of control (dose: 120.0 mg/kg/injection, schedule: Q01DX005 (ip), vehicle: Klucel + Tween-80); 100 % of control (dose: 240.0 mg/kg/injection, schedule: Q01DX005 (ip), vehicle: Klucel + Tween-80).
`O=C(O)c1c[nH]c2cc(O)ccc2c1=O`: the T/C was 98 % of control (dose: 12.5 mg/kg/injection, schedule: Q01DX009 (ip), vehicle: saline with Tween-80); 96 % of control (dose: 25.0 mg/kg/injection, schedule: Q01DX009 (ip), vehicle: saline with Tween-80); 103 % of control under setting [1]; 103 % of control (dose: 50.0 mg/kg/injection, schedule: Q01DX009 (ip), vehicle: saline); 101 % of control (dose: 100.0 mg/kg/injection, schedule: Q01DX009 (ip), vehicle: saline); 95 % of control (dose: 200.0 mg/kg/injection, schedule: Q01DX009 (ip), vehicle: saline).
In the case of `CCn1ncc2c1nc(-c1ccccc1)c[n+]2[O-]`, the T/C runs as follows: (dose: 60.0 mg/kg/injection, schedule: Q01DX005 (ip), vehicle: Klucel (hydroxypropylcellulose) (HPC)) 92 % of control; (dose: 120.0 mg/kg/injection, schedule: Q01DX005 (ip), vehicle: Klucel (hydroxypropylcellulose) (HPC)) 100 % of control; (dose: 240.0 mg/kg/injection, schedule: Q01DX005 (ip), vehicle: Klucel (hydroxypropylcellulose) (HPC)) 101 % of control.
For `NC1=C(N2CC2)C(=O)C(N)=C(N2CC2)C1=O`, the T/C (dose: 0.05 mg/kg/injection, schedule: Q01DX009 (ip), vehicle: saline) is 177 % of control; the T/C (dose: 0.1 mg/kg/injection, schedule: Q01DX009 (ip), vehicle: saline) is 187 % of control and 223 % of control; the T/C (dose: 0.2 mg/kg/injection, schedule: Q01DX009 (ip), vehicle: saline) is 256 % of control; the T/C (dose: 0.3 mg/kg/injection, schedule: Q01DX009 (ip), vehicle: saline) is 225 % of control.
Turning to `COc1cc2c(c3c1c(=O)c1ccccc1n3C)C=C([N+](=O)[O-])C(C)(C)O2`, the T/C (dose: 3.0 mg/kg/injection, schedule: Q01DX005 (ip), vehicle: saline + Tween-80 + alcohol) is 116 % of control; the T/C (dose: 6.0 mg/kg/injection, schedule: Q01DX005 (ip), vehicle: saline + Tween-80 + alcohol) is 116 % of control; the T/C (dose: 12.0 mg/kg/injection, schedule: Q01DX005 (ip), vehicle: saline + Tween-80 + alcohol) is 108 % of control.
In the case of `CC(NC(=O)C(Cc1c[nH]c2ccccc12)NC(=O)OCc1ccccc1)C(=O)O` (stereo not given), the T/C under setting [4] is 119 % of control, the T/C under setting [5] is 103 % of control and the T/C under setting [6] was 97 % of control.
